Laboratory results reported in PubChem BioAssay (NCI).
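Each compound was tested at five concentrations against cells in 96-well plates for 48 hours. TGI marks complete inhibition of growth.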

Experiments:
Assay in all cases: NCI anticancer screen, dose series, 48 h
IGROV1 ovarian = test system: IGROV1 ovarian
UO-31 renal = test system: UO-31 renal
NCI-H460 lung = test system: NCI-H460 lung
A549 NSCLC = test system: A549 NSCLC
HOP-92 NSCLC = test system: HOP-92 NSCLC
SN12C renal = test system: SN12C renal
KM20L2 colon = test system: KM20L2 colon
SW-620 colon = test system: SW-620 colon
EKVX NSCLC = test system: EKVX NSCLC
HOP-62 NSCLC = test system: HOP-62 NSCLC
HCT-15 colon = test system: HCT-15 colon
COLO 205 colon = test system: COLO 205 colon
A498 renal = test system: A498 renal
TK-10 renal = test system: TK-10 renal
HT29 colon = test system: HT29 colon
SNB-75 CNS = test system: SNB-75 CNS
HOP-18 NSCLC = test system: HOP-18 NSCLC
LXFL 529 NSCLC = test system: LXFL 529 NSCLC
RXF-631 renal = test system: RXF-631 renal
DMS 114 small cell lung = test system: DMS 114 small cell lung
DMS 273 small cell lung = test system: DMS 273 small cell lung
SK-MEL-28 melanoma = test system: SK-MEL-28 melanoma
HL-60(TB) leukemia = test system: HL-60(TB) leukemia
KM12 colon = test system: KM12 colon
OVCAR-4 ovarian = test system: OVCAR-4 ovarian
SK-OV-3 ovarian = test system: SK-OV-3 ovarian
SNB-19 CNS = test system: SNB-19 CNS
K-562 leukemia = test system: K-562 leukemia
M14 melanoma = test system: M14 melanoma
CAKI-1 renal = test system: CAKI-1 renal
CCRF-CEM leukemia = test system: CCRF-CEM leukemia
DLD-1 colon = test system: DLD-1 colon
OVCAR-5 ovarian = test system: OVCAR-5 ovarian
HCC-2998 colon = test system: HCC-2998 colon
RPMI-8226 leukemia = test system: RPMI-8226 leukemia
OVCAR-8 ovarian = test system: OVCAR-8 ovarian
U251 CNS = test system: U251 CNS
SF-295 CNS = test system: SF-295 CNS
MOLT-4 leukemia = test system: MOLT-4 leukemia
UACC-257 melanoma = test system: UACC-257 melanoma
UACC-62 melanoma = test system: UACC-62 melanoma
SF-268 CNS = test system: SF-268 CNS
SK-MEL-5 melanoma = test system: SK-MEL-5 melanoma
MALME-3M melanoma = test system: MALME-3M melanoma
786-0 renal = test system: 786-0 renal
SNB-78 CNS = test system: SNB-78 CNS
SF-539 CNS = test system: SF-539 CNS
NCI-H226 lung = test system: NCI-H226 lung
HCT-116 colon = test system: HCT-116 colon
OVCAR-3 ovarian = test system: OVCAR-3 ovarian
NCI-H522 lung = test system: NCI-H522 lung
NCI-H23 lung = test system: NCI-H23 lung
M19-MEL melanoma = test system: M19-MEL melanoma
ACHN renal = test system: ACHN renal

**Q.** `O=C(CCc1n[nH]c(=S)o1)Nc1ccc(Cl)cc1Cl` was tested. Which TGI (IGROV1 ovarian) did it give?
**A.** > 100 µM

**Q.** What about the TGI (UO-31 renal) of the same compound?
**A.** > 100 µM

**Q.** What about the TGI (NCI-H460 lung) of the same compound?
**A.** > 100 µM

**Q.** What about the TGI (A549 NSCLC) of the same compound?
**A.** > 100 µM

**Q.** And the TGI (HOP-92 NSCLC)?
**A.** > 100 µM

**Q.** What about the TGI (SN12C renal) of the same compound?
**A.** > 100 µM

**Q.** And the TGI (KM20L2 colon)?
**A.** > 100 µM

**Q.** What about the TGI (SW-620 colon) of the same compound?
**A.** 29.9 µM

**Q.** And the TGI (EKVX NSCLC)?
**A.** > 100 µM

**Q.** And the TGI (HOP-62 NSCLC)?
**A.** > 100 µM

**Q.** And the TGI (HCT-15 colon)?
**A.** 46.1 µM

**Q.** What about the TGI (COLO 205 colon) of the same compound?
**A.** > 100 µM

**Q.** And the TGI (A498 renal)?
**A.** > 100 µM

**Q.** What about the TGI (TK-10 renal) of the same compound?
**A.** > 100 µM

**Q.** And the TGI (HT29 colon)?
**A.** > 100 µM

**Q.** And the TGI (SNB-75 CNS)?
**A.** > 100 µM

**Q.** And the TGI (HOP-18 NSCLC)?
**A.** > 100 µM

**Q.** And the TGI (LXFL 529 NSCLC)?
**A.** > 100 µM

**Q.** What about the TGI (RXF-631 renal) of the same compound?
**A.** > 100 µM

**Q.** What about the TGI (DMS 114 small cell lung) of the same compound?
**A.** > 100 µM

**Q.** What about the TGI (DMS 273 small cell lung) of the same compound?
**A.** > 100 µM

**Q.** What about the TGI (SK-MEL-28 melanoma) of the same compound?
**A.** > 100 µM

**Q.** And the TGI (HL-60(TB) leukemia)?
**A.** > 100 µM

**Q.** And the TGI (KM12 colon)?
**A.** > 100 µM

**Q.** And the TGI (OVCAR-4 ovarian)?
**A.** > 100 µM

**Q.** And the TGI (SK-OV-3 ovarian)?
**A.** > 100 µM

**Q.** And the TGI (SNB-19 CNS)?
**A.** > 100 µM

**Q.** What about the TGI (K-562 leukemia) of the same compound?
**A.** > 100 µM

**Q.** What about the TGI (M14 melanoma) of the same compound?
**A.** > 100 µM

**Q.** And the TGI (CAKI-1 renal)?
**A.** > 100 µM

**Q.** What about the TGI (CCRF-CEM leukemia) of the same compound?
**A.** > 100 µM

**Q.** What about the TGI (DLD-1 colon) of the same compound?
**A.** > 100 µM

**Q.** And the TGI (OVCAR-5 ovarian)?
**A.** > 100 µM

**Q.** What about the TGI (HCC-2998 colon) of the same compound?
**A.** > 100 µM

**Q.** And the TGI (RPMI-8226 leukemia)?
**A.** 44.4 µM

**Q.** And the TGI (OVCAR-8 ovarian)?
**A.** > 100 µM

**Q.** And the TGI (U251 CNS)?
**A.** > 100 µM

**Q.** And the TGI (SF-295 CNS)?
**A.** > 100 µM

**Q.** And the TGI (MOLT-4 leukemia)?
**A.** > 100 µM

**Q.** And the TGI (UACC-257 melanoma)?
**A.** > 100 µM

**Q.** And the TGI (UACC-62 melanoma)?
**A.** > 100 µM

**Q.** And the TGI (SF-268 CNS)?
**A.** > 100 µM

**Q.** What about the TGI (SK-MEL-5 melanoma) of the same compound?
**A.** > 100 µM

**Q.** What about the TGI (MALME-3M melanoma) of the same compound?
**A.** > 100 µM

**Q.** What about the TGI (786-0 renal) of the same compound?
**A.** > 100 µM

**Q.** What about the TGI (SNB-78 CNS) of the same compound?
**A.** > 100 µM

**Q.** What about the TGI (SF-539 CNS) of the same compound?
**A.** > 100 µM

**Q.** What about the TGI (NCI-H226 lung) of the same compound?
**A.** > 100 µM

**Q.** And the TGI (HCT-116 colon)?
**A.** > 100 µM

**Q.** What about the TGI (OVCAR-3 ovarian) of the same compound?
**A.** > 100 µM

**Q.** And the TGI (NCI-H522 lung)?
**A.** > 100 µM

**Q.** What about the TGI (NCI-H23 lung) of the same compound?
**A.** > 100 µM

**Q.** What about the TGI (M19-MEL melanoma) of the same compound?
**A.** > 100 µM

**Q.** And the TGI (ACHN renal)?
**A.** > 100 µM
